# Publication PMC5601738, “Facile total synthesis of lysicamine and the anticancer activities of the Ru^II, Rh^III, Mn^II and Zn^II complexes of lysicamine” (Oncotarget, 2017)
# “And” between values parts separate entries of the source, which are not always exact repeats. Identical values can stand only once.
# How the values were obtained:
# BEL-7404 = assay: MTT assay, BEL-7404 cells; format: cell-based, human; conditions: 48 h
# NCI-H460 = assay: MTT assay, NCI-H460 cells; format: cell-based, human; conditions: 48 h
# [1] = tested on: HL-7702 normal liver cell; assay: MTT assay, HL-7702 normal liver cell; format: cell-based; conditions: 48 h, normal liver cell; for inhibitive ratio HL-7702: 20 μmol/L
# HepG2 cells [2] = assay: Cell cycle analysis by flow cytometry; format: cell-based, human
# HepG2 cells [3] = assay: Apoptosis assay, Annexin V-FITC/PI flow cytometry; format: cell-based, human; conditions: HepG2, 28.0 μM, 24 h; control […]
# ct-DNA = assay: CD absorption spectrometry assay with ct-DNA; format: binding; conditions: ct-DNA 1×10^−4 M, [DNA]/[compound] 10:0.5 to 10:2.0
# pBR322 plasmid DNA = assay: Agarose gel electrophoresis assay with pBR322 plasmid DNA; format: biochemical; conditions: pBR322 0.5 μg/μL, TBE buffer pH=8.5, 10 to 100 μM
# Protocol: The DNA cleavage activity of 2, 3 and LY were tested by agarose gel electrophoresis assay using pBR322 plasmid DNA (0.5 μg/μL) in TBE buffer (pH=8.5). […] In contrast, under the same experimental conditions, when the concentration of 2 increased from 10 μM to 50 μM, the mobility of supercoiled DNA (form I) was reduced, but the relaxed form (form II) was not observed. When the concentration of 2 increased further to 70 μM, the form II DNA appeared. Almost all supercoiled DNA (form I) changed to relaxed DNA (form II) when the concentration of 2 reached 90 and 100 μM.
# RT-qPCR was performed. The threshold cycle (Ct) values approval no. SCXK 2014-0002 and SYXK 2014-0003), […]
# were housed at a sterile environment with conditions of […]
# than 3 days before used. Complexes and LYwere all […]
# is limited in 1% in final working solutions. KM mice. The large concentration of 2 in 10% (v/v) […]
# ct-DNA CD spectrum as control.
# The HepG2 xenograft mice were induced by
# 37 °C in the dark for 4 h.
# The percent weight loss or gain was calculated […]
# imaging system under a UV-Vis transilluminator.. Percent tumour growth inhibition after initiation of treatment with 2 and cisplatin were calculated by TGI= […]
# initial for control group).
# Animals were supplied by Guangxi Medical
# University Laboratory Animal Centre (Guangxi, China, […]
# HepG2 cells [4] = assay: Hoechst33258 assay; conditions: HepG2, 24 h; 2 at 3.5, 7.0, […]; 3 at 7.0, 14.0, 28.0 μM
# Protocol: The Hoechst33258 assay is commonly used to measure the changes in cell morphology caused by apoptosis [55]. The HepG2 cells were incubated with 2 (3.5, 7.0, and 14.0 μM) and 3 (7.0, 14.0, and 28.0 μM) for 24 h, respectively, then stained with Hoechst33258 and examined under a fluorescence microscope (Figure 4A).
# Hoechst33258 assay Cell cycle-, apoptotic-associated proteins used
# The morphology characters of apoptosis of HepG2 western blotting analysis
# cells treated with 2 and 3 were carried out by Hoechst Extraction of total protein
# 33258 staining. About 1×10^6 cells were seeded in six-well
# plates, and treated with 2 (3.5, 7.0 and 14.0 μM) and 3 After HepG2 cells incubated with 2 (3.5, 7.0, 14.0
# (7.0, 14.0 and 28.0 μM) for 24 h. The cells were fixed with μM) and 3 (7.0, 14.0, 28.0 μM) for 24 h, cells were
# then stained with Hoechst 33258 for another 10 min in on ice.
# HepG2 = assay: MTT assay, HepG2 cells
# caspase-3 in HepG2 cells = assay: Activated caspase-3 by flow cytometry; conditions: HepG2, at IC50, 24 h; control 0.0 %
# Protocol: (§1) After treated, the cells were collected, and suspended in h at 37 °C in 5% CO2 incubator. The cells were harvested
# (§2) with annexin V-FITC and PI for 1 h at room temperature cytometer equipped. The results were represented as the
# (§3) in the dark and immediately analyzed by flow cytometry. percent change on the activity comparing with the control.
# (§4) Caspase- 3, -8 and -9 activity determinations by our previously report [3].
# caspase-8 in HepG2 cells = assay: Activated caspase-8 by flow cytometry; conditions: HepG2, at IC50, 24 h; control 2.1 %
# Protocol: as §1, §2, §3, §4
# caspase-9 in HepG2 cells = assay: Activated caspase-9 by flow cytometry; conditions: HepG2, at IC50, 24 h; control […]
# Protocol: as §1, §2, §3, §4
# [5] = tested on: apoptosis associated proteins in HepG2 cells; assay: Western blot of apoptosis-related proteins; conditions: HepG2, 24 h, various concentrations
# [6] = tested on: cell cycle regulatory proteins in HepG2 cells; assay: Western blot of cell cycle regulatory proteins; conditions: HepG2, 24 h
# Protocol: HepG2 cells were incubated with 2 and 3 at increasing concentrations for 24 h, and the expression of cell cycle regulatory proteins in the S phase was examined through Western blot analysis.
# HepG2 cells [7] = assay: ROS, intracellular Ca2+ and mitochondrial membrane potential (DCFH-DA, Fluo-3 AM, JC-1); conditions: HepG2, 24 h; 2 at 3.5, 7.0, […]; 3 at 7.0, 14.0, 28.0 μM
# Protocol: The changes in the ROS level, intracellular Ca^2+ and loss of ΔΨm in the HepG2 cells were detected by the DCFH-DA, Fluo-3 AM, and JC-1 fluorescent probes, respectively (see in Figure 5A). Green fluorescence represented higher ROS levels, more intracellular Ca^2+, and reduced ΔΨm.
# Measurement of oxygen species (ROS), Determination of cell cycle and apoptotic related
# intracellular Ca2+ and mitochondrial membrane proteins
# and then resuspended in 1mL of DCFH-DA (100 μM) onto a PVDF membrane.
# cytometry or fluorescence microscope.
# [8] = MTT, mean ± SD from five independent experiments
structure (smiles),measurement,setting,value
"COc1cc2ccnc3c2c(c1OC)-c1ccccc1C3=O.COc1cc2ccnc3c2c(c1OC)-c1ccccc1C3=O.COc1cc2ccnc3c2c(c1OC)-c1ccccc1C3=O.ClC(Cl)Cl.ClC(Cl)Cl.ClC(Cl)Cl.[Mn+2].[O-][Cl+3]([O-])([O-])[O-].[O-][Cl+3]([O-])([O-])[O-] [Complex 3, [Mn(LY)3](ClO4)2·3CHCl3]",inhibitive ratio BEL-7404,BEL-7404; 20 μmol/L,35.27±1.15%
same,IC50,BEL-7404; [8],36.2 ± 1.03 µM
same,inhibitive ratio NCI-H460,NCI-H460; 20 μmol/L,54.93±0.86% and 54.93%
same,IC50,NCI-H460; [8],12.9 ± 3.62 µM
same,inhibitive ratio HL-7702,[1],32.9%
same,inhibitive ratio HL-7702,[1]; listed as 3,32.97±1.14%
same,IC50,[1]; [8],55.4 ± 3.65 µM
same,cell population in S phase,"HepG2 cells [2]; HepG2, 28.0 μM, 24 h, control 31.23%",48.70%
same,effect on cell cycle progression,"HepG2 cells [2]; HepG2, 24 h",significant cell cycle arrest at the S phase
same,percentages of cells undergoing apoptosis and necrosis,HepG2 cells [3],35.8%
same,change of CD spectrum of ct-DNA / binding,ct-DNA,significant hypochromism in both the negative and the positive bands
same,DNA cleavage activity on supercoiled pBR322 DNA,pBR322 plasmid DNA,cleavage of supercoiled DNA was still little
same,Hoechst33258 fluorescence / apoptotic cell morphology,HepG2 cells [4],stronger fluorescence in a dose-dependent manner
same,inhibitive ratio Hep-G2,"HepG2; 20 μmol/L, 48 h",62.99±0.43% and 62.99%
same,fold increase of cytotoxicity (IC50) comparing with the free LY ligand,HepG2; HepG2 cells,1.6–3.2 fold
same,IC50,"HepG2; read-out: IC50 HepG2, MTT, 48 h, mean ± SD from five independent experiments",14.5 ± 0.69 µM
same,proportion of activated caspase-3 cells,caspase-3 in HepG2 cells,18.8%
same,proportion of activated caspase-8 cells,caspase-8 in HepG2 cells,12.3%
same,proportion of activated caspase-9 cells,caspase-9 in HepG2 cells,17.0%
same,"expression of Bax, Apaf-1 and cytochrome c",[5],increased
same,"expression of C-myc, Bcl-xl and Bcl-2",[5],decreased
same,proliferating cell nuclear antigen (PCNA) level,[6],decreased
same,"expression of Cdk2, p-Cdc25A, p53, p21 and p27",[6]; increasing concentrations,increased
same,"ROS, intracellular Ca2+ and ΔΨm",HepG2 cells [7],"caused overproduction of ROS, rising intracellular Ca^2+, and loss of Δψm"
